Here are results for 5 compounds from patent publication US8912121B2, “Herbicidal compositions comprising 4-amino-3-chloro-5-fluoro-6-(4-chloro-2-fluoro-3-methoxyphenyl)pyridine-2-carboxylic acid or a derivative thereof and certain PS II inhibitors” (Dow Agrosciences LLC, priority 2012, dated 2014).

Assay [1] has as its system BRAPP (Brachiaria platyphylla, broadleaf signalgrass). As to the kind of experiment: Pre-emergence soil-applied mixtures, greenhouse. It is filed as in vivo, Brachiaria platyphylla (Groseb.) Nash. Particulars: 27 DAA. An excerpt:
(§1) Seeds or nutlets of the desired test plant species were planted in a soil matrix prepared by mixing a loam soil (32 percent silt, 23 percent clay, and 45 percent sand, with a pH of about 6.5 and an organic matter content of about 1.9 percent) and calcareous grit in an 80 to 20 ratio. The soil matrix was contained in plastic pots with a volume of 1 quart and a surface area of 83.6 square centimeters (cm^2).
(§2) Treatments consisted of the benzyl ester of 4-amino-3-chloro-5-fluoro-6-(4-chloro-2-fluoro-3-methoxy-phenyl)pyridine-2-carboxylic acid (compound A) formulated as an SC (suspension concentrate) and various herbicidal components alone and in combination. Forms of compound A were applied on an acid equivalent basis.
(§3) Other herbicidal components were applied on an acid equivalent or active ingredient basis and included the PSII-inhibiting herbicides, atrazine formulated as Atrazine® 90WDG, metribuzin formulated as Metribuzin 75DF, simazine formulated as Princep Caliber 90, tebuthiuron formulated as Spike 80DF, cyanazine (technical grade material), hexazinone (technical grade material), linuron (technical grade material), terbuthylazine (technical grade material), and diuron formulated as Diuron 4L.
(§4) Treatment requirements were calculated based upon the rates being tested, the concentration of active ingredient or acid equivalent in the formulation, and a 12 mL application volume at a rate of 187 L/ha.
(§5) For treatments comprised of formulated compounds, measured amounts of compounds were placed individually in 25 mL glass vials and diluted in a volume of 1.25% (v/v) Agri-Dex® crop oil concentrate (COC) to obtain 12× stock solutions. […] Application solutions were prepared by adding an appropriate amount of each stock solution (e.g., 1 mL) and diluted to the appropriate final concentrations with the addition of 10 mL of an aqueous mixture of 1.25% (v/v) COC so that the final spray solutions contained 1.25% (v/v) COC.
(§6) For treatments comprised of technical compounds, weighed amounts can be placed individually in 25 mL glass vials and dissolved in a volume of 97:3 (v/v) acetone/DMSO to obtain 12× stock solutions. […] Application solutions can be prepared by adding an appropriate amount of each stock solution (e.g., 1 mL) and diluted to the appropriate final concentrations with the addition of 10 mL of an aqueous mixture of 1.5% (v/v) COC so that the final spray solutions contain 1.25% (v/v) COC. When technical materials are used, the concentrated stock solutions can be added to the spray solutions so that the final acetone and DMSO concentrations of the application solutions are 16.2% and 0.5%, respectively.
(§7) For treatments comprised of formulated and technical compounds, weighed amounts of the technical materials can be placed individually in 25 mL glass vials and dissolved in a volume of 97:3 (v/v) acetone/DMSO to obtain 12× stock solutions, and measured amounts of the formulated compounds can be placed individually in 25 mL glass vials and diluted in a volume of 1.5% (v/v) COC or water to obtain 12× stock solutions. […] Application solutions can be prepared by adding an appropriate amount of each stock solution (e.g., 1 mL) and diluted to the appropriate final concentrations with the addition of an appropriate amount of an aqueous mixture of 1.5% (v/v) COC so that the final spray solutions contain 1.25% (v/v) COC. As required, additional water and/or 97:3 (v/v) acetone/DMSO can be added to individual application solutions so that the final acetone and DMSO concentrations of the application solutions being compared are 8.1% and 0.25%, respectively.
(§8) All stock solutions and applications solutions were visually inspected for compound compatibility prior to application. Spray solutions were applied to the soil with an overhead Mandel track sprayer equipped with a 8002E nozzles calibrated to deliver 187 L/ha over an application area of 0.503 m^2 at a spray height of 18 inches (46 cm) above average pot height. […]

Assay [2] deals with IPOHE (Ipomoea hederacea, ivyleaf morningglory). As to the kind of experiment: Postemergence foliar-applied mixtures, direct seeded rice, greenhouse. It counts as in vivo, Ipomoea hederacea Jacq. Particulars: post-emergence.
Source text: (§9) Seeds or nutlets of the desired test plant species were planted in a soil matrix prepared by mixing a loam or sandy loam soil (e.g., 28.6 percent silt, 18.8 percent clay, and 52.6 percent sand, with a pH of about 5.8 and an organic matter content of about 1.8 percent) and calcareous grit in an 80 to 20 ratio. The soil matrix was contained in plastic pots with a volume of 1 quart and a surface area of 83.6 square centimeters (cm^2). When required to ensure good germination and healthy plants, a fungicide treatment and/or other chemical or physical treatment was applied. The plants were grown for 8-22 days in a greenhouse with an approximate 14 h photoperiod which was maintained at about 29° C. during the day and 26° C. during the night. Nutrients (Peters Excel® 15-5-15 5-Ca 2-Mg and iron chelate) were applied in the irrigation solution as needed and water was added on a regular basis. Supplemental lighting was provided with overhead metal halide 1000-Watt lamps as necessary. The plants were employed for testing when they reached the first through fourth true leaf stage.
(§10) Treatments consisted of the acid or esters of 4-amino-3-chloro-5-fluoro-6-(4-chloro-2-fluoro-3-methoxy-phenyl) pyridine-2-carboxylic acid (Compound A), each formulated as an SC (suspension concentrate), and various herbicidal components alone and in combination. Forms of compound A were applied on an acid equivalent basis.
(§11) Other herbicidal components were applied on an active ingredient basis and included Photosystem II (PSII)-inhibiting herbicides propanil formulated as Stam® M4 EC, bentazon-sodium formulated as Basagran®, atrazine formulated as Atrazine 90 WDG, bromoxynil octanoate ester formulated as Buctril®, simetryne (technical grade material), simazine formulated as Princep® Caliber 90, ioxynil (technical grade material), cyanazine (technical grade material), and hexazinone (technical grade material).
as §4
(§12) For treatments comprised of formulated compounds, measured amounts of compounds were placed individually in 25 mL glass vials and diluted in a volume of 1.25% (v/v) Agri-Dex® crop oil concentrated to obtain 12× stock solutions. […] Application solutions were prepared by adding an appropriate amount of each stock solution (e.g., 1 mL) and diluted to the appropriate final concentrations with the addition of 10 mL of an aqueous mixture of 1.25% (v/v) crop oil concentrate so that the final spray solutions contained 1.25+/−0.05% (v/v) crop oil concentrate.
as §6, with “97:3 v/v” for “97:3 (v/v)”, “(v/v) crop oil concentrate” for “(v/v) COC”, “(v/v) crop oil concentrate.” for “(v/v) COC.”
(§13) For treatments comprised of formulated and technical compounds, weighed amounts of the technical materials were placed individually in 25 mL glass vials and dissolved in a volume of 97:3 v/v acetone/DMSO to obtain 12× stock solutions, and measured amounts of the formulated compounds were placed individually in 25 mL glass vials and diluted in a volume of 1.5% (v/v) crop oil concentrate or water to obtain 12× stock solutions. […]

Assay [3] concerns ECHCO (Echinochloa colona, junglerice). The description is as above. It counts as in vivo, Echinochloa colona (L.) Link. Particulars: 21 DAA.
Source text: as §9, §10, §11, §4, §12
as §6, with “97:3 v/v” for “97:3 (v/v)”, “(v/v) crop oil concentrate” for “(v/v) COC”, “(v/v) crop oil concentrate.” for “(v/v) COC.”
as §13

For assay [4], the system named is ECHCG (Echinochloa crusgalli, barnyardgrass). The assay is described as above. It counts as in vivo, Echinochloa crusgalli (L.) Beauv. The note with it: 625 g ai/ha; 21 DAA. Here is the method:
as §9, with “When required to ensure good germination and healthy plants, a fungicide treatment and/or other chemical or physical treatment was applied.” left out
as §10, §11, §12
as §6, with “97:3 v/v” for “97:3 (v/v)”, “(v/v) crop oil concentrate” for “(v/v) COC”, “(v/v) crop oil concentrate.” for “(v/v) COC.”
For treatments comprised of formulated and technical compounds, weighed amounts of the technical materials were placed individually in 25 mL glass vials and dissolved in a volume of 97:3 v/v acetone/DMSO to obtain 12× stock solutions, and measured amounts of the formulated compounds were placed individually in 25 mL glass vials and diluted in a volume of 1.5% (v/v) crop oil concentrate or water to obtain 12× stock solutions. […] Application solutions were prepared by adding an appropriate amount of each stock solution (eg, 1 mL) and diluted to the appropriate final concentrations with the addition of an appropriate amount of an aqueous mixture of 1.5% (v/v) crop oil concentrate so that the final spray solutions contained 1.25% (v/v) crop oil concentrate.

Assay [5] relates to XANST (Xanthium strumarium, common cocklebur). As to the kind of experiment: Pre-emergence soil-applied mixtures, greenhouse. It is filed as in vivo, Xanthium strumarium L. Particulars: Terbuthylazine 1000 g ai/ha; 27 DAA.
Source text: as §1, §2, §3, §4, §5, §6, §7, §8

Each structure is given as a SMILES string.

As for `CCNc1nc(Cl)nc(NC(C)(C)C#N)n1` [Cyanazine, 2-[[4-chloro-6-(ethylamino)-1,3,5-triazin-2-yl]amino]-2-methylpropanenitrile], the “Visual Weed Control (%) - 27 DAA BRAPP Obs” value is 0% in assay [1] (Cyanazine 170 g ai/ha), 15% in assay [1] (Cyanazine 440 g ai/ha) and 10% in assay [1] (Cyanazine 880 g ai/ha). Moreover, the pest or weed control at 275 g/ha in assay [2] (480 h, read-out: Visual Weed Control (%) Obs, 275 g ai/ha, 20 DAA) is 50%.

For the compound `CON(C)C(=O)Nc1ccc(Cl)c(Cl)c1` [Linuron, N′-(3,4-dichlorophenyl)-N-methoxy-N-methylurea], the “Visual Weed Control (%) - 27 DAA BRAPP Obs” value in assay [1] (Linuron 620 g ai/ha) is given as 0%.

Regarding `CN(C)c1nc(=O)n(C2CCCCC2)c(=O)n1C` [Hexazinone, 3-cyclohexyl-6-(dimethylamino)-1-methyl-1,3,5-triazine-2,4(1H,3H)-dione, reference compound], the “Visual Weed Control (%) Obs” value amounted to 25% in assay [3] (625 g ai/ha), 55% in assay [3] (1250 g ai/ha) and 20% in assay [4]. The pest or weed control at 625 g/ha in assay [2] (504 h, 625 g ai/ha, 21 DAA, read-out: Visual Weed Control (%) Obs) stood at 80%.

Turning to `CCNc1nc(Cl)nc(NC(C)(C)C)n1` [Terbuthylazine, 6-chloro-N-(1,1-dimethylethyl)-N′-ethyl-1,3,5-triazine-2,4-diamine, reference compound], the “Visual Weed Control (%) - 27 DAA XANST Obs” value in assay [5] is 45%.

Consider `N#Cc1cc(I)c(O)c(I)c1` [Ioxynil, 4-hydroxy-3,5-diiodobenzonitrile, reference compound], for which the pest or weed control at 300 g/ha in assay [2] (480 h, read-out: Visual Weed Control (%) Obs, 300 g ai/ha, 20 DAA) is 50%.
